Assay results: ChEMBL document CHEMBL1158205, “Antineoplastic agents. 340. Isolation and structural elucidation of bryostatins 16-18” (J Nat Prod, 1996)
In brackets after ≈: the same amount, converted by molar mass.

Key:
[1] = target: Protein kinase C alpha type (Homo sapiens, UniProt P17252); assay: Displacement of [3H]PDBu form PKCalpha
P388 = assay: Cytotoxicity against mouse P388 cells; format: functional; conditions: read-out: ED50 (the source's name)
SF-295 = assay: Growth inhibition of human SF295 cells by NCI-method; format: functional
SK-MEL-5 = assay: Growth inhibition of human SK-MEL-5 cells by NCI-method; format: functional
KM-20L2 = assay: Growth inhibition of human KM20L2 cells by NCI-method; format: functional
OVCAR-3 = assay: Growth inhibition of human OVCAR-3 cells by NCI-method; format: functional
A498 = assay: Growth inhibition of human A498 cells by NCI-method; format: functional
NCI-H460 = assay: Growth inhibition of human NCI-H460 cells by NCI-method; format: functional

| Compound | Ki [1] [nM] | EC50 (P388) [µg/mL] | GI50 (SF-295) [µg/mL] | GI50 (SK-MEL-5) [µg/mL] | GI50 (KM-20L2) [µg/mL] | GI50 (OVCAR-3) [µg/mL] | GI50 (A498) [µg/mL] | GI50 (NCI-H460) [µg/mL] |
| --- | --- | --- | --- | --- | --- | --- | --- | --- |
| COC(=O)/C=C1/C[C@H]2C[C@]3(O)O[C@H](C[C@@H](O)CC(=O)O[C@@H]([C@@H](C)O)C[C@@H]4C/C(=C\C(=O)OC)C[C@@](O)(O4)C(C)(C)/C=C/[C@@H](C1)O2)C[C@H](OC(=O)C(C)(C)C)C3(C)C [BRYOSTATIN 10] | 1.56 |  |  |  |  |  |  |  |
| COC(=O)/C=C1/C[C@H]2C[C@]3(O)O[C@H](C[C@@H](O)CC(=O)O[C@@H]([C@@H](C)O)C[C@@H]4C/C(=C\C(=O)OC)C=C(O4)C(C)(C)/C=C/[C@@H](C1)O2)C[C@H](OC(=O)C(C)(C)C)C3(C)C [BRYOSTATIN 16] | 118 | 0.0093 (≈ 0.0118 µM) | 1.4 (≈ 1.77 µM) | 1.2 (≈ 1.52 µM) | 2.2 (≈ 2.78 µM) | 1.9 (≈ 2.4 µM) | 1.9 (≈ 2.4 µM) | 0.019 (≈ 0.024 µM) |
| COC(=O)/C=C1\C=C2O[C@@H](C1)C[C@H]([C@@H](C)O)OC(=O)C[C@H](O)C[C@@H]1C[C@H](OC(=O)C(C)(C)C)C(C)(C)[C@](O)(C[C@@H]3C/C(=C/C(=O)OC)C[C@H](/C=C/C2(C)C)O3)O1 [BRYOSTATIN 17] | 188 | 0.019 (≈ 0.024 µM) | 0.16 (≈ 0.202 µM) | 0.16 (≈ 0.202 µM) | 0.16 (≈ 0.202 µM) | 0.16 (≈ 0.202 µM) | 0.16 (≈ 0.202 µM) | 0.16 (≈ 0.202 µM) |
| COC(=O)/C=C1/C[C@H]2C[C@]3(O)O[C@H](C[C@@H](O)CC(=O)O[C@@H]([C@@H](C)O)C[C@@H]4C/C(=C/C(=O)OC)C[C@@](O)(O4)C(C)(C)/C=C/[C@@H](C1)O2)C[C@H](OC(=O)C(C)(C)C)C3(C)C [BRYOSTATIN 18] | 4.82 | 0.0033 (≈ 0.00408 µM) | 0.42 (≈ 0.519 µM) | 0.42 (≈ 0.519 µM) | 0.42 (≈ 0.519 µM) | 0.42 (≈ 0.519 µM) | 0.42 (≈ 0.519 µM) | 0.42 (≈ 0.519 µM) |
